Species: Rattus norvegicus
Experiment: DrugMatrix - Regimen: Daily Repeat
Type: toxicity, organism-based, Sprague-Dawley
Set-up: regimen Daily Repeat, gender Male, age 6-8 weeks
Settings: in vivo, po, route oral GAVAGE, vehicle .5 % CMC; for BASOPHIL / EOSINOPHIL / ERYTHROCYTE COUNT / HEMATOCRIT / HEMOGLOBIN / LEUKOCYTE COUNT / LYMPHOCYTE / MEAN CORPUSCULAR HEMOGLOBIN / MEAN CORPUSCULAR HEMOGLOBIN CONCENTRATION / MEAN CORPUSCULAR VOLUME / MONOCYTE / NEUTROPHIL / PLATELET COUNT: tissue Blood; for ALANINE AMINOTRANSFERASE / ALBUMIN / ALKALINE PHOSPHATASE / ASPARTATE AMINOTRANSFERASE / BLOOD UREA NITROGEN / CHLORIDE / CHOLESTEROL / CREATINE PHOSPHOKINASE / CREATININE / GLUCOSE / PHOSPHORUS / POTASSIUM / SODIUM / TOTAL BILIRUBIN / TOTAL PROTEIN: tissue Plasma
[1] = 0 mg/kg, 72 h, dose level Control, time 3 day
[2] = 0 mg/kg, 120 h, dose level Control, time 5 day
[3] = 300 mg/kg, 72 h, dose level Low, time 3 day
[4] = 300 mg/kg, 120 h, dose level Low, time 5 day
[5] = 1500 mg/kg, 72 h, dose level High, time 3 day
[6] = 1500 mg/kg, 120 h, dose level High, time 5 day

## O=C1CCc2cc(OCCCCc3nnnn3C3CCCCC3)ccc2N1 [CILOSTAZOL]
[1]
  BASOPHIL: 0.68%
  EOSINOPHIL: 0.46%
  ERYTHROCYTE COUNT: 7.15 x10E6/uL
  HEMATOCRIT: 45.44%
  HEMOGLOBIN: 14.1 G/DL
  LEUKOCYTE COUNT: 9.78 x10E3/uL
  LYMPHOCYTE: 84.44%
  MEAN CORPUSCULAR HEMOGLOBIN: 19.72 pg
  MEAN CORPUSCULAR HEMOGLOBIN CONCENTRATION: 31 G/DL
  MEAN CORPUSCULAR VOLUME: 63.66 fL
  MONOCYTE: 2.14%
  NEUTROPHIL: 11.16%
  PLATELET COUNT: 1378.2 x10E3/uL
  ALANINE AMINOTRANSFERASE: 42.33 u/L
  ALBUMIN: 3.8 G/DL
  ALKALINE PHOSPHATASE: 388.17 u/L
  ASPARTATE AMINOTRANSFERASE: 68 u/L
  BLOOD UREA NITROGEN: 16.17 mg/dL
  CHLORIDE: 96.67 MEQ/L
  CHOLESTEROL: 71 mg/dL
  CREATINE PHOSPHOKINASE: 156.17 u/L
  CREATININE: 0.57 mg/dL
  GLUCOSE: 193.67 mg/dL
  PHOSPHORUS: 11.43 mg/dL
  POTASSIUM: 7 MEQ/L
  SODIUM: 140.33 MEQ/L
  TOTAL BILIRUBIN: 0.48 mg/dL
  TOTAL PROTEIN: 6.8 G/DL
[2]
  BASOPHIL: 1.47%
  EOSINOPHIL: 1%
  ERYTHROCYTE COUNT: 7.12 x10E6/uL
  HEMATOCRIT: 45.47%
  HEMOGLOBIN: 14.1 G/DL
  LEUKOCYTE COUNT: 11.38 x10E3/uL
  LYMPHOCYTE: 82.57%
  MEAN CORPUSCULAR HEMOGLOBIN: 19.82 pg
  MEAN CORPUSCULAR HEMOGLOBIN CONCENTRATION: 31.02 G/DL
  MEAN CORPUSCULAR VOLUME: 63.88 fL
  MONOCYTE: 2.2%
  NEUTROPHIL: 11.97%
  PLATELET COUNT: 1267 x10E3/uL
  ALANINE AMINOTRANSFERASE: 38 u/L
  ALBUMIN: 3.72 G/DL
  ALKALINE PHOSPHATASE: 391 u/L
  ASPARTATE AMINOTRANSFERASE: 65.83 u/L
  BLOOD UREA NITROGEN: 14.17 mg/dL
  CHLORIDE: 107.67 MEQ/L
  CHOLESTEROL: 61 mg/dL
  CREATINE PHOSPHOKINASE: 148.33 u/L
  CREATININE: 0.57 mg/dL
  GLUCOSE: 177.17 mg/dL
  PHOSPHORUS: 12.07 mg/dL
  POTASSIUM: 7.2 MEQ/L
  SODIUM: 151.5 MEQ/L
  TOTAL BILIRUBIN: 0.58 mg/dL
  TOTAL PROTEIN: 6.72 G/DL
[3]
  BASOPHIL: 0.4%
  EOSINOPHIL: 0.5%
  ERYTHROCYTE COUNT: 6.67 x10E6/uL
  HEMATOCRIT: 43%
  HEMOGLOBIN: 13.6 G/DL
  LEUKOCYTE COUNT: 12.31 x10E3/uL
  LYMPHOCYTE: 81.4%
  MEAN CORPUSCULAR HEMOGLOBIN: 20.4 pg
  MEAN CORPUSCULAR HEMOGLOBIN CONCENTRATION: 31.6 G/DL
  MEAN CORPUSCULAR VOLUME: 64.55 fL
  MONOCYTE: 2.4%
  NEUTROPHIL: 14%
  PLATELET COUNT: 1378 x10E3/uL
  ALANINE AMINOTRANSFERASE: 40.67 u/L
  ALBUMIN: 3.6 G/DL
  ALKALINE PHOSPHATASE: 331.33 u/L
  ASPARTATE AMINOTRANSFERASE: 59 u/L
  BLOOD UREA NITROGEN: 14.67 mg/dL
  CHLORIDE: 96 MEQ/L
  CHOLESTEROL: 75.33 mg/dL
  CREATINE PHOSPHOKINASE: 120.33 u/L
  CREATININE: 0.53 mg/dL
  GLUCOSE: 178.33 mg/dL
  PHOSPHORUS: 11.33 mg/dL
  POTASSIUM: 6.4 MEQ/L
  SODIUM: 141 MEQ/L
  TOTAL BILIRUBIN: 0.33 mg/dL
  TOTAL PROTEIN: 6.43 G/DL
[4]
  BASOPHIL: 1.17%
  EOSINOPHIL: 0.37%
  ERYTHROCYTE COUNT: 7.17 x10E6/uL
  HEMATOCRIT: 46.5%
  HEMOGLOBIN: 14.43 G/DL
  LEUKOCYTE COUNT: 13.79 x10E3/uL
  LYMPHOCYTE: 85.57%
  MEAN CORPUSCULAR HEMOGLOBIN: 20.2 pg
  MEAN CORPUSCULAR HEMOGLOBIN CONCENTRATION: 31.07 G/DL
  MEAN CORPUSCULAR VOLUME: 64.9 fL
  MONOCYTE: 2.3%
  NEUTROPHIL: 9.6%
  PLATELET COUNT: 1545 x10E3/uL
  ALANINE AMINOTRANSFERASE: 41 u/L
  ALBUMIN: 3.77 G/DL
  ALKALINE PHOSPHATASE: 365.67 u/L
  ASPARTATE AMINOTRANSFERASE: 63 u/L
  BLOOD UREA NITROGEN: 14.67 mg/dL
  CHLORIDE: 106.67 MEQ/L
  CHOLESTEROL: 67.33 mg/dL
  CREATINE PHOSPHOKINASE: 135 u/L
  CREATININE: 0.67 mg/dL
  GLUCOSE: 167 mg/dL
  PHOSPHORUS: 12.53 mg/dL
  POTASSIUM: 7.53 MEQ/L
  SODIUM: 151.33 MEQ/L
  TOTAL BILIRUBIN: 0.43 mg/dL
  TOTAL PROTEIN: 6.77 G/DL
[5]
  BASOPHIL: 0.53%
  EOSINOPHIL: 0.27%
  ERYTHROCYTE COUNT: 6.95 x10E6/uL
  HEMATOCRIT: 45.23%
  HEMOGLOBIN: 14.2 G/DL
  LEUKOCYTE COUNT: 13.97 x10E3/uL
  LYMPHOCYTE: 82.9%
  MEAN CORPUSCULAR HEMOGLOBIN: 20.43 pg
  MEAN CORPUSCULAR HEMOGLOBIN CONCENTRATION: 31.4 G/DL
  MEAN CORPUSCULAR VOLUME: 65.13 fL
  MONOCYTE: 2.43%
  NEUTROPHIL: 13.1%
  PLATELET COUNT: 1348.33 x10E3/uL
  ALANINE AMINOTRANSFERASE: 34.67 u/L
  ALBUMIN: 3.77 G/DL
  ALKALINE PHOSPHATASE: 340.33 u/L
  ASPARTATE AMINOTRANSFERASE: 60.33 u/L
  BLOOD UREA NITROGEN: 12 mg/dL
  CHLORIDE: 95 MEQ/L
  CHOLESTEROL: 65.33 mg/dL
  CREATINE PHOSPHOKINASE: 141 u/L
  CREATININE: 0.5 mg/dL
  GLUCOSE: 178.33 mg/dL
  PHOSPHORUS: 11.9 mg/dL
  POTASSIUM: 6.77 MEQ/L
  SODIUM: 140.33 MEQ/L
  TOTAL BILIRUBIN: 0.43 mg/dL
  TOTAL PROTEIN: 6.67 G/DL
[6]
  BASOPHIL: 0.83%
  EOSINOPHIL: 0.37%
  ERYTHROCYTE COUNT: 7 x10E6/uL
  HEMATOCRIT: 45.1%
  HEMOGLOBIN: 13.87 G/DL
  LEUKOCYTE COUNT: 10.98 x10E3/uL
  LYMPHOCYTE: 80.03%
  MEAN CORPUSCULAR HEMOGLOBIN: 19.8 pg
  MEAN CORPUSCULAR HEMOGLOBIN CONCENTRATION: 30.67 G/DL
  MEAN CORPUSCULAR VOLUME: 64.47 fL
  MONOCYTE: 2.53%
  NEUTROPHIL: 15.27%
  PLATELET COUNT: 1161 x10E3/uL
  ALANINE AMINOTRANSFERASE: 45 u/L
  ALBUMIN: 3.67 G/DL
  ALKALINE PHOSPHATASE: 377 u/L
  ASPARTATE AMINOTRANSFERASE: 66.33 u/L
  BLOOD UREA NITROGEN: 12 mg/dL
  CHLORIDE: 106.67 MEQ/L
  CHOLESTEROL: 66.67 mg/dL
  CREATINE PHOSPHOKINASE: 130 u/L
  CREATININE: 0.6 mg/dL
  GLUCOSE: 184.33 mg/dL
  PHOSPHORUS: 12.83 mg/dL
  POTASSIUM: 7.27 MEQ/L
  SODIUM: 151.33 MEQ/L
  TOTAL BILIRUBIN: 0.4 mg/dL
  TOTAL PROTEIN: 6.6 G/DL
